According to patent US10351548B2, “2-oxo-1,2-dihydropyridine-3-carboxamide compounds and their use as inhibitors of PDK1” (INTERNATIONAL SOCIETY FOR DRUG DEVELOPMENT S.R.L., priority 2015, dated 2019):

Assays:
[1] = biological target: PDK1 Direct kinase (Homo sapiens (Human), UniProt O15530); assay: Kinase-specific FRET-based Z'-LYTE assay against PDK1 Direct kinase; type: biochemical; conditions: for IC50: read-out: PDK1 IC50
Experimental: The compounds of Formula (I) and (II) were tested in the biological test named Kinase-specific Z′-LYTE® assay (Invitrogen Corporation, Life Technologies).

[2] = test system: U87MG cells; assay: U87MG cell proliferation, MTS assay; type: cell-based, human; conditions: Homo sapiens, U-87 MG; 72 h, MTS assay; read-out: IC50 U87MG
Experimental: (§1) The U87MG cell line was obtained from the National Institute for Cancer Research of Genoa (Italy) and cultured in DMEM 10% FBS and 2 mM glutamine. To isolate GSCs, approximately 2.0×10^6 cells were suspended in 1 mL of a defined serum-free Neural Stem Cell (NSC) medium (Daniele, S., et al., Modulation of A1 and A2B adenosine receptor activity: a new strategy to sensitise glioblastoma stem cells to chemotherapy. Cell death & disease, 2014. 5(11): p. e1539). After 3-4 days of culture, the neurospheres were collected, suspended in NSC medium, dissociated into single cells, and plated for the assays. For the long-term treatment of cells, NSC or complete medium containing drugs was replaced every two to three days.
(§2) The human U87MG cells or GSCs were seeded at a density of 3×10^3 cells/well. After 24 h, the cells were treated from one to seven days with fresh growth medium containing different concentrations of SA16, SA23 or IB35. Following the treatment period, cell proliferation was determined using the MTS assay according to manufacturer's instruction. The absorbance of formazan at […] was measured in a colorimetric assay with an automated plate reader (Victor Wallac 2, Perkin Elmer). The results were calculated by subtracting the mean background from the values obtained from each evaluation and were expressed as the percentage of the control (untreated cells). Sigmoid dose-response curve was generated, from which the IC50 values were derived.
As representative GBM cell line, the above U87MG cells were used; this human cell line resulted an appropriate model to study the effects of PDK1 inhibition, because it is deficient for the tumour suppressor phosphatase and tensin homologue (PTEN), a negative regulator of the PI3K/AKT pathway (Wang, S. I., et al., Somatic mutations of PTEN in glioblastoma multiforme. Cancer research, 1997. 57(19): p. 4183-4186). To examine the effects of SA16, SA23 and IB35 on GBM cell growth/survival, U87MG cells were incubated with different concentrations of the new compounds (1 nM-10 μM) for 24 and 72 h. Specifically, U87MG cells were treated in complete medium with different concentrations of SA16, SA23 or IB35 (1 nM-10 μM) for 24 h (A) or 72 h (B). At the end of treatment, cell proliferation was measured using the MTS assay. The data are expressed as a percentage with respect to that of untreated cells (control), which was set to 100%, and are the mean values±SEM of three independent experiments, each performed in duplicate. The significance of the differences reported in FIGS. 1 and 2 was determined with a one-way ANOVA with Bonferroni post-test (* p<0.05, **p<0.01, *** p<0.001 vs. control cells).

[3] = test system: GSCs isolated from U87MG cells; assay: GSC proliferation, MTS assay; type: cell-based, human; conditions: Homo sapiens, U-87 MG, 168 h; seven days of treatment, MTS assay
Experimental: as §1, §2
The inhibition of PDK1 has been reported as potentially effective therapeutic approach to reduce self-renewal and propagation of GSCs (Signore, M., et al., Combined PDK1 and CHK1 inhibition is required to kill glioblastoma stem-like cells in vitro and in vivo. Cell death & disease, 2014. 5(5): p. e1223). On this basis, the effects of SA16, SA23 and IB35 on GSCs, isolated from U87MG cells as previously reported, were evaluated (Daniele, S., et al., Modulation of A1 and A28 adenosine receptor activity: a new strategy to sensitise glioblastoma stem cells to chemotherapy. Cell death & disease, 2014. 5(11): p. e1539). U87MG-derived GSCs were incubated with the indicated concentrations of IB35, SA23 or SA16 for four days (FIG. 8) or seven days (FIG. 9). At the end of the treatment periods, cell proliferation was measured using the MTS assay. The data were expressed as a percentage with respect to that of untreated cells (control), which was set to 100%, and are the mean values±SEM of three independent experiments, each performed in duplicate. IC50 values after seven days of treatment were calculated from sigmoid dose-response curve (FIG. 9). The significance of the differences was determined with a one-way ANOVA with Bonferroni post-test (** p<0.01, *** p<0.001 vs. control).

Sequence of PDK1 Direct kinase (O15530 whole entry): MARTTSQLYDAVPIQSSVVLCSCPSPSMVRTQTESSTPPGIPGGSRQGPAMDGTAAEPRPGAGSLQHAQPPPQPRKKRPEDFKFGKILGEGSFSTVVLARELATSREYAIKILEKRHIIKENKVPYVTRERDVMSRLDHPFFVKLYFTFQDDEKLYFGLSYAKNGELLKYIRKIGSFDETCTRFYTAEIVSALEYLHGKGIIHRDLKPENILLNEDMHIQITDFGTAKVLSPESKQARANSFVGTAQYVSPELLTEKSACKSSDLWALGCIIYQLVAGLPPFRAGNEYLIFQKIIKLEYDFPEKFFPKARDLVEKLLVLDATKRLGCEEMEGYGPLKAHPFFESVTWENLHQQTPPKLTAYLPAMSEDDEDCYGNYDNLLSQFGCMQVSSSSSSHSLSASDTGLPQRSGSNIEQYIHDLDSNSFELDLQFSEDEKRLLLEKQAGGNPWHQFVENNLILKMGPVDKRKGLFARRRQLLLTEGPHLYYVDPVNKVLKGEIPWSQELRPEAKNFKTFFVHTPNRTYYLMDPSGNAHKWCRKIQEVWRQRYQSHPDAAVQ

`O=C(CCCNC(=O)c1cccn(Cc2ccc(F)c(F)c2)c1=O)Nc1ccc2c(c1)/C(=C/c1cnc[nH]1)C(=O)N2` [DF8, (Z)-N-(4-((3-((1H-imidazol-5-yl)methylene)-2-oxoindolin-5-yl)amino)-4-oxobutyl)-1-(3,4-difluorobenzyl)-2-oxo-1,2-dihydropyridine-3-carboxamide] showed an inhibition at 10 µM [1] of over 50%.
Work on `O=C(CNC(=O)c1cccn(Cc2ccc(F)c(F)c2)c1=O)Nc1ccc2c(c1)CC(=O)N2` [IB32, 1-(3,4-difluorobenzyl)-2-oxo-N-(2-oxo-2-((2-oxoindolin-5-yl)amino)ethyl)-1,2-dihydropyridine-3-carboxamide] yielded an inhibition at 10 µM [1] of over 50% and an IC50 [1] of 6680 nM.
With `O=C(CCNC(=O)c1cccn(Cc2ccc(F)c(F)c2)c1=O)Nc1ccc2c(c1)/C(=C/c1cnc[nH]1)C(=O)N2` [DD21, (Z)—N-(3-((3-((1H-imidazol-5-yl)methylene)-2-oxoindolin-5-yl)amino)-3-oxopropyl)-1-(3,4-difluorobenzyl)-2-oxo-1,2-dihydropyridine-3-carboxamide] the inhibition at 10 µM [1] was over 50%.
For `O=C(CCCNC(=O)c1cccn(Cc2ccc(F)c(F)c2)c1=O)Nc1ccc2c(c1)C(=Cc1cccs1)C(=O)N2` (mixture of isomers) [DF9, (E/Z)-1-(3,4-difluorobenzyl)-2-oxo-N-(4-oxo-4-((2-oxo-3-(thiophen-2-ylmethylene)indolin-5-yl)amino)butyl)-1,2-dihydropyridine-3-carboxamide], the inhibition at 10 µM [1] was over 50% and the IC50 [1] was 5880 nM.
For `O=C1Nc2ccc(NC(=O)c3cccc(NC(=O)c4cccn(Cc5ccc(F)c(F)c5)c4=O)c3)cc2C1=Cc1cccs1` (mixture of isomers) [DD41, (E/Z)-1-(3,4-difluorobenzyl)-2-oxo-N-(3-((2-oxo-3-(thiophen-2-ylmethylene)indolin-5-yl)carbamoyl)phenyl)-1,2-dihydropyridine-3-carboxamide], the inhibition at 10 µM [1] was 26%.
`O=C(CCNC(=O)c1cccn(Cc2ccc(F)c(F)c2)c1=O)Nc1ccc2c(c1)/C(=C/c1ccc(F)cc1)C(=O)N2` [DD23, (Z)-1-(3,4-difluorobenzyl)-N-(3-((3-(4-fluorobenzylidene)-2-oxoindolin-5-yl)amino)-3-oxopropyl)-2-oxo-1,2-dihydropyridine-3-carboxamide] showed an inhibition at 10 µM [1] of 15%.
`O=C1Nc2ccc(NC(=O)c3cccn(Cc4ccc(F)c(F)c4)c3=O)cc2/C1=C/c1cnc[nH]1` [JJ31, (Z)—N-(3-((1H-imidazol-5-yl)methylene)-2-oxoindolin-5-yl)-1-(3,4-difluorobenzyl)-2-oxo-1,2-dihydropyridine-3-carboxamide] was tested, and the inhibition at 10 µM [1] was over 50% and the IC50 [1] was 512 nM.
`CO[C@H]1C[C@@H]2CC[C@@H](C)[C@@](O)(O2)C(=O)C(=O)N2CCCC[C@H]2C(=O)O[C@H]([C@H](C)C[C@@H]2CC[C@@H](OCCO)[C@H](OC)C2)CC(=O)[C@H](C)/C=C(\C)[C@@H](O)[C@@H](OC)C(=O)[C@H](C)C[C@H](C)/C=C/C=C/C=C/1C` [Everolimus, reference compound] was tested, and the IC50 [2] was 50 ± 2.8 nM and the IC50 [3] was 15 ± 1.2 nM.
Compound `O=C(CCNC(=O)c1cccn(Cc2ccc(F)c(F)c2)c1=O)Nc1ccc2c(c1)/C(=C/c1cccs1)C(=O)N2` [DD22, (E/Z)-1-(3,4-difluorobenzyl)-2-oxo-N-(3-oxo-3-((2-oxo-3-(thiophen-2-ylmethylene)indolin-5-yl)amino)propyl)-1,2-dihydropyridine-3-carboxamide] has an inhibition at 10 µM [1] of over 50% and an IC50 [1] of 1340 nM.
Compound `O=C(CNC(=O)c1cccn(Cc2ccc(F)c(F)c2)c1=O)Nc1ccc2c(c1)C(=Cc1cccs1)C(=O)N2` (mixture of isomers) [IB36, (E/Z)-1-(3,4-difluorobenzyl)-2-oxo-N-(2-oxo-2-((2-oxo-3-(thiophe-2-ylmethylene)indolin-5-yl)amino)ethyl)-1,2-dihydropyridine-3-carboxamide] has an inhibition at 10 µM [1] of 19%.
Work on `O=C(CCNC(=O)c1cccn(Cc2ccc(F)c(F)c2)c1=O)Nc1ccc2c(c1)/C(=C/c1ncc[nH]1)C(=O)N2` [DD25, (Z/E)-N-(3-((3-((1H-imidazol-2-yl)methylene)-2-oxoindolin-5-yl)amino)-3-oxopropyl)-1-(3,4-difluorobenzyl)-2-oxo-1,2-dihydropyridine-3-carboxamide] yielded an inhibition at 10 µM [1] of 47%.
